Test results as given in patent US20200390889A1, “REMOTELY TRIGGERED THERAPY” (Bambu Vault LLC, priority 2019, published 2020).

Tests used:
[1] = likelihood of association with drug induced liver injury, based upon the known potential of the drug; cited from earlier work
[2] = Retention of tetrakis aminium dye during emulsification with different surfactants; format: physicochemical; conditions: for retention of Epolight 1117 in the particles: during the emulsion and evaporation process
Experimental: IR absorbing agent weight ratio=4.4:1). The organic phase (polymer and IR absorbing agents dissolved in dichloromethane) was injected directly into the aqueous phase (PVA solution with SDS surfactant) at the tip of the Turrax's roto-stator (i.e. directly into the flow being sheared by the roto-stator). The shear mixing at 8000 RPM was continued for 30 minutes. The resulting mixture was decanted into an open-mouth container and stirred magnetically for 16 hours. A solid suspension of particles containing IR absorbing agent was obtained. The solid suspension was centrifuged at 5000 RPM for 30 minutes and the particles were collected. The collected particles were washed with distilled water by resuspending the particles into distilled water and centrifuging as before to collect the particles. This washing process was repeated three times to remove residual PVA. The resulting MMA/IA/BMA copolymer particles containing IR absorbing agent were air-dried. In the emulsion method of encapsulation, a surfactant is necessary to help keep the emulsion stable. While Aerosol® TR-70 (sodium bis(tridecyl) sulfosuccinate) could be used as an emulsifier to prepare polymer particles encapsulating Epolight™ 1117 tetrakis aminium dye, TR-70 only provided limited stabilization effects on the tetrakis aminium dye. […] Reducing the amount of SDS in the aqueous phase led to lower Epolight™ 1117 retention and larger particle size (Table 5).

[3] = Screening of acrylic polymers and additives for IR absorbing agent stability and retention; format: physicochemical; conditions: additive within the particles
Experimental: Various commercially available acrylic polymers were screened for preferred particle performance characteristic such as particle size distribution, IR absorbing agent stability and encapsulation efficiency. […] NeoCryl® B-818, an ethyl acrylate/ethyl methacrylate copolymer, contained a lower hydroxyl value, but was still swellable in low molecular weight alcohols. NeoCryl® B-805, a methyl methacrylate/butyl methacrylate copolymer, had suitably a low hydroxyl value and a high Tg (99° C.) for human body applications.
The loading of IR absorbing agents within the particles is as high as possible without degrading the cohesion of the polymer. The additives that stabilize the IR absorbing agent within the particles have been studied.

[4] = Percentage of curcumin and Epolight IR 1117 loading / encapsulation determination; format: physicochemical; conditions: in B-805 PMMA/BMA particles made by Example 13(b)
Experimental: The UV-VIS-NIR absorbance spectrum of the IR absorbing agent and/or the drug is measured using Shimadzu UV-3600 UV-VIS-NIR Spectrophotometer. The concentration of the IR absorbing agent in the particles is determined from application of Beer's law.

[5] = Leaching (stability) test, protective effect of VTMS shell; format: physicochemical; conditions: post-coating vs pre-coating B-805 particles; 1% SDS in water, sonicated 90 minutes
Experimental: Prior to the test, particles were dispersed in water for storage at varying concentrations. Amounts of fluid containing 50 mg of particles—a sample of pre-coating particles and a sample of post-coating particles—were weighed into 15 mL conical centrifuge tubes. The tubes were centrifuged to sediment the particles and supernatant was removed. 3 mL of 1% SDS in water was added to each tube, which were then vortexed to resuspend particles. The tubes containing the particles suspended in SDS solution were placed into a sonicated water bath for 90 minutes. The tubes were then removed and centrifuged to sediment the particles again. The supernatant was retained and filtered through a 0.2 μm syringe filter to remove any remaining particles. Absorption spectra of the supernatants was then measured on a Shimadzu 3600 UV/Vis/NIR spectrophotometer from 400-1300 nm. Molarity of colored components in the solutions and the percentage decrease of absorption between post-coating and pre-coating particles was calculated from the spectra.

[6] = Laser triggered drug release from particles in gelatin; format: physicochemical; conditions: PMMA beads with 25% VTMS shells in gelatin; Q-switched Lutronic laser 1064 nm, 2.46-5.09 J/cm^2
Experimental: Procedure: A solution of gelatin was prepared by adding Knox gelatin (1.0 g) to cold water (12.5 g) in a 100 mL glass jar equipped with a magnetic stir bar. The gelatin was stirred 15-30 minutes and then hot water was added (70° C.) until the total weight was 50.0 g. This gelatin was then used in 2.0 gm aliquots. Drug loaded PMMA beads with 25% VTMS shells as prepared in Example 1b above (20-30 mg) were then added to the gelatin solution (2.0 g) and vortexed mixed in a 4 dram vial. The suspension of the tattoo particles in gelatin was then sonicated for 15-30 minutes before transferring to a 5 cm plastic culture dish. The gelatin suspension was spread evenly and allowed to set. It was then covered and placed in a refrigerator a 6° C. until ready for laser exposure.
Laser exposure was accomplished as follows: The cover for the culture dish was removed and a 5 cm clear plastic cover was cut and fit over the gelatin to prevent splatter. The top surface was then completely lasered at 1064 nm with a 5 mm spot using fluences ranging from 2.46 J/cm^2 to 5.09 J/cm^2 using Q-switched Lutronic laser.
After lasering the top surface the culture dish was covered with its lid, turned over and lasered from the opposite side to reach any unexposed beads visible only from the bottom side.
The standard fluence for tattoo removal is 3.51 J/cm^2. […]

T47D = conditions: ER+ breast cancer cells, Hu et al. 2018; cited from earlier work
MCF7 = conditions: MCF7, ER+ breast cancer cells; Hu et al. 2018; cited from earlier work
MDA-MB-415 = conditions: MDA-MB-415, ER+ breast cancer cells; Hu et al. 2018; cited from earlier work
MDA-MB-231 = conditions: MDA-MB-231, ER-PR-HER2- cells; Hu et al. 2018; cited from earlier work
MDA-MD-468 = conditions: MDA-MD-468, ER-PR-HER2- cells; Hu et al. 2018; cited from earlier work
BT-20 = conditions: BT-20, ER-PR-HER2- cells; Hu et al. 2018; cited from earlier work
[7] = 0.6% surfactant in aqueous phase during emulsification

SMILES | Likelihood Score [1] | also measured
CCc1nc(C(N)=O)c(Nc2ccc(N3CCC(N4CCN(C)CC4)CC3)c(OC)c2)nc1NC1CCOCC1 [Gilteritinib] | E* | 
CCCCCCCCCCCCCOC(=O)CC(C(=O)OCCCCCCCCCCCCC)S(=O)(=O)O.[Na] (centres unmarked) [TR-70, sodium bis(tridecyl) sulfosuccinate] |  | % Epolight 1117 Retention [2, 7]: 51.70%; retention of Epolight 1117 in the particles [2]: 50%
COc1cc(Nc2ncc(F)c(Nc3ccc4c(n3)N(COP(=O)(O)O)C(=O)C(C)(C)O4)n2)cc(OC)c1OC [Fostamatinib] | E* | 
CC(C)(C)c1nc(-c2cccc(NS(=O)(=O)c3c(F)cccc3F)c2F)c(-c2ccnc(N)n2)s1 [Dabrafenib] | E* | 
Cc1c(C(=O)Nc2ccc(N3C[C@@H](C)O[C@@H](C)C3)nc2)cccc1-c1ccc(OC(F)(F)F)cc1 [Sonidegib] | E* | 
CC(C)(O)CNc1nc(Nc2ccnc(C(F)(F)F)c2)nc(-c2cccc(C(F)(F)F)n2)n1 [Enasidenib] | E* | 
CC(C)C[C@H](NC(=O)CNC(=O)c1cc(Cl)ccc1Cl)B(O)O [Ixazomib] | E* | 
Cn1ncnc1[C@H]1c2n[nH]c(=O)c3cc(F)cc(c23)N[C@@H]1c1ccc(F)cc1 [Talazoparib] | E* | 
COc1cc(N2CCC(N3CCN(C)CC3)CC2)ccc1Nc1ncc(Cl)c(Nc2ccccc2P(C)(C)=O)n1 [Brigatinib] | E* | 
NC(=O)c1cccc2cn(-c3ccc([C@@H]4CCCNC4)cc3)nc12 [Niraparib] | E* | 
COc1cc(Nc2c(C#N)cnc3cc(OCCCN4CCN(C)CC4)c(OC)cc23)c(Cl)cc1Cl [Bosutinib] | E* | 
CNCc1ccc(-c2[nH]c3cc(F)cc4c3c2CCNC4=O)cc1 [Rucaparib] | D* | 
CO[C@@H]1[C@H](N(C)C(=O)c2ccccc2)C[C@H]2O[C@]1(C)n1c3ccccc3c3c4c(c5c6ccccc6n2c5c31)C(=O)NC4 [Midostaurin] | E* | 
CCOc1cc2ncc(C#N)c(Nc3ccc(OCc4ccccn4)c(Cl)c3)c2cc1NC(=O)/C=C/CN(C)C [Neratinib] | E* | 
COc1cc2ncnc(Nc3ccc(F)c(Cl)c3)c2cc1NC(=O)/C=C/CN1CCCCC1 [Dacomitinib] | E* | 
CCCS(=O)(=O)Nc1ccc(F)c(C(=O)c2c[nH]c3ncc(-c4ccc(Cl)cc4)cc23)c1F [Vemurafenib] | E* | 
C[C@H]1Oc2cc(cnc2N)-c2c(nn(C)c2C#N)CN(C)C(=O)c2ccc(F)cc21 [Lorlatinib] | E* | 
N#Cc1ccnc(N2C(=O)CC[C@H]2C(=O)N(c2cncc(F)c2)[C@H](C(=O)NC2CC(F)(F)C2)c2ccccc2Cl)c1 [Ivosidenib] | E* | 

SMILES | Likelihood Score [1] | also measured
C[C@H](Nc1ncnc2[nH]cnc12)c1cc2cccc(Cl)c2c(=O)n1-c1ccccc1 [Duvelisib] | E* | 
N#CC[C@H](C1CCCC1)n1cc(-c2ncnc3[nH]ccc23)cn1 [Ruxolitinib] | E* | 
COc1cc2c(Nc3ccc(Br)cc3F)ncnc2cc1OCC1CCN(C)CC1 [Vandetanib] | E* | 
O=C(Nc1cnn2ccc(N3CCC[C@@H]3c3cc(F)ccc3F)nc12)N1CC[C@H](O)C1 [Larotrectinib] | E* | 
CC(=O)c1c(C)c2cnc(Nc3ccc(N4CCNCC4)cn3)nc2n(C2CCCC2)c1=O [Palbociclib] | E* | 
COC(=O)c1ccc2c(c1)NC(=O)/C2=C(\Nc1ccc(N(C)C(=O)CN2CCN(C)CC2)cc1)c1ccccc1 [Nintedanib] | E* | 
Cc1cc(C(C)(C)C)c(O)c(C)c1Cn1c(=O)n(Cc2c(C)cc(C(C)(C)C)c(O)c2C)c(=O)n(Cc2c(C)cc(C(C)(C)C)c(O)c2C)c1=O [Cyanox® 1790, 1,3,5-tris(4-tert-butyl-3-hydroxy-2,6-dimethylbenzyl)-1,3,5-triazine-2,4,6-(1H,3H,5H)-trione] |  | impact on IR absorbing agent stability [3]: positive impact
CN1CC[C@@H](NC(=O)Nc2ccc(C#N)cc2)C[C@@H]1c1nc2ccccc2[nH]1 [Glasdegib] | E* | 
Cc1ccc(C(=O)Nc2ccc(CN3CCN(C)CC3)c(C(F)(F)F)c2)cc1C#Cc1cnc2cccnn12 [Ponatinib] | E* | 
COC(=O)N[C@@H](C)CNc1nccc(-c2cn(C(C)C)nc2-c2cc(Cl)cc(NS(C)(=O)=O)c2F)n1 [Encorafenib] | E* | 
Cn1cnc2c(F)c(Nc3ccc(Br)cc3F)c(C(=O)NOCCO)cc21 [Binimetinib] | E* | 
COc1c(OCCCN2CCOCC2)ccc2c1N=C(NC(=O)c1cnc(N)nc1)N1CCN=C21 [Copanlisib] | E* | 
CCS(=O)(=O)N1CC(CC#N)(n2cc(-c3ncnc4[nH]ccc34)cn2)C1 [Baricitinib] | E* | 
COc1cc2nccc(Oc3ccc(NC(=O)C4(C(=O)Nc5ccc(F)cc5)CC4)cc3)c2cc1OC [Cabozantinib] | E* | 
CCCCCCCCCCCCOS(=O)(=O)[O-].[Na+] [SDS, sodium dodecyl sulfate] |  | % Epolight 1117 Retention ([2]; 0.2% surfactant in aqueous phase during emulsification): 74.97%; % Epolight 1117 Retention ([2]; 0.4% surfactant in aqueous phase during emulsification): 80.17%; % Epolight 1117 Retention [2, 7]: 82.96%; retention of Epolight 1117 in the particles [2]: 85-90%
CCN1CCN(Cc2ccc(Nc3ncc(F)c(-c4cc(F)c5nc(C)n(C(C)C)c5c4)n3)nc2)CC1 [Abemaciclib] | E* | 
COc1cc(/C=C/C(=O)CC(=O)/C=C/c2ccc(O)c(OC)c2)ccc1O [Curcumin, curcumin] |  | measured encapsulation [4]: 78%; reduction of leaching by VTMS shell [5]: 70%; curcumin released from the particles [6]: about 3 wt. %; IC50 (T47D): 2.07 ± 0.08 µM; IC50 (MCF7): 1.32 ± 0.06 µM; IC50 (MDA-MB-415): 4.69 ± 0.06 µM; IC50 (MDA-MB-231): 11.3 ± 2.13 µM; IC50 (MDA-MD-468): 18.6 ± 3.12 µM; IC50 (BT-20): 16.2 ± 2.16 µM
